Experimental findings from patent US11054422B2, “Circulating astrocytes and MFSD2A as biomarkers” (priority 2017, dated 2021) are described below.

In one data set the test system is BBB. Put plainly: Blood cell biomarkers, serum markers and BBB extravasation in mice treated with nicotine, METH and gp120. The conditions noted are these: for Evans blue and albumin extravasation into the brain / blood levels of CD133+/CD146+ endothelial PCs (EPCs) / blood levels of circulating Astrocytes (cAstr) / blood levels of circulating BMECs (cBMECs), CD146+/S100B+: treated mice. As to the method: Nicotine tartrate (NT) and methamphetamine (METH) were purchased from Sigma-Aldrich (St. Louis, Mo.). Dynabeads® M-450 Tosylactivated was obtained from Invitrogen (Carlsbad, Calif.) and utilized for magnetic bead extraction. Ulexeuropaeus 1 (UEA I) lectin and mounting medium with 4′,6-diamidino-2-phenylindole (DAPI) were purchased from Vector (Buringame, Calif.). HIV-1 gp120 was purchased from Immunodiagnostics (Woburn, Mass.). Serum levels of molecular markers were determined by ELISA using antibodies and antigens from Creative Biomart (New York, N.Y.) (S100B) and ProteinTech (Chicago, Ill.) (ubiquitin C-terminal hydrolase 1, UCHL1). The Mfsd 2a antibody was purchased from Santa Cruz Biotechnology, Inc. (Dallas, TEXAS). All primary antibodies (Ab) were purchased from the commercial sources: a rabbit anti-α7 nAChR Ab from Genescript (Piscataway, N.J.); a rat anti-mouse Ly-6G (Gr-I) Ab; a mouse anti-CD44 Ab (sc-7297), a rabbit anti-actin (sc-7210), and a rabbit anti-GLUT1 Ab from Santa Cruz Biotechnology (Santa Cruz, Calif.); a rat anti-mouse Ly-6G (Gr-I) Ab FITC-conjugated and an anti-mouse CD146 Ab FITC-conjugated from eBiosciences (San Diego, Calif.), a rabbit anti-SIOOB Ab rhodamine-conjugated from BD Biosciences, and a rabbit anti-CD133 Ab rhodamine-conjugated from Abbiotec (San Diego, Calif.). Transwell filters (3 μm pore size, 6.5 mm diameter), blood plates and CBA assay kit were purchased from BD Biosciences (San Jose, Calif.). Chemicals were purchased from Sigma-Aldrich (St. Louis, Mo.) unless otherwise noted.
Mouse cBMECs were isolated with UIexeuropaeus 1 (UEA 1) lectin-coated Dynabeads as known by one of ordinary skill in the art. The beads were prepared according to the manufacturer's instructions (Invitrogen) and re-suspended in Hanks' balanced salt solution (HBSS. Invitrogen Corp., Carlsbad, Calif., USA) plus 5% fetal calf serum (HBSS+5% FCS) to a final concentration of 4×10^8 beads/mi. Mouse cBMECs in whole blood were affinity captured at 4TC with UEA UEA-1 coated Dynabeads. To eliminate non-specific cell binding to the beads, the cell suspensions were flushed through the pipette tip during the washing steps and then suspended in PBS by using a magnetic particle concentrator (MPC). The bound cells were incubated with 0.5M fucose for 10 min at room temperature to release the beads from target cells. The beads were then washed 5 times with HBSS+5% FBS and collected with the MPC. Then the suspensions were collected and centrifuged. The pellet was collected and affinity captured at 4-C with Msd2a-precoated Dynabeads. After blocking and washing, the cells conjugated to the beads were fixed with 2% paraformaldehyde and 0.25% glutaradehyde for 30 minutes. Then the FITC-conjugated CD146 antibody (BMECs specific marker, used for cBMEC identification) was added and incubated with the beads-bound cells overnight (dark). At last, DAPI was added and incubated with the beads-bound cells for 30 min. The cells (10 ul) were transferred to the cell counter, and counted under a florescence microscope.
Mouse astrocytes were isolated with Concanavalin A (ConA)-coated magnetic beads as known by one of ordinary skill in the art. Dynabeads™ beads were prepared according to the manufacturer's instructions (Invitrogen) and re-suspended in Hanks' balanced salt solution (HBSS, Invitrogen Corp., Carlsbad, Calif., USA) plus 5% fetal calf serum (HBSS+5% FCS) to a final concentration of 4×10^8 beads/ml. Mouse astrocytes in whole blood were affinity captured at 4° C. with ConA coated Dynabeads™. To eliminate non-specific cell binding to the beads, the cell suspensions were flushed through the pipette tip during the washing steps and then suspended in PBS by using a magnetic particle concentrator (MPC). The bound cells were incubated with 0.5M fucose for 10 min at room temperature to release the beads from target cells. The beads were then washed 5 times with HBSS+5% FBS and collected with the MPC. Then the suspensions were collected and centrifuged. […]

For the next data set, the target named is T1, α7 nAChR (Mus musculus, UniProt P49582).
T1 construct: endogenous in cells; host or cells: live neonatal (10 day-old) mice, in vivo; C57BL/6J is the strain stated for the animal experiments in general
T1 sequence (P49582 23-502): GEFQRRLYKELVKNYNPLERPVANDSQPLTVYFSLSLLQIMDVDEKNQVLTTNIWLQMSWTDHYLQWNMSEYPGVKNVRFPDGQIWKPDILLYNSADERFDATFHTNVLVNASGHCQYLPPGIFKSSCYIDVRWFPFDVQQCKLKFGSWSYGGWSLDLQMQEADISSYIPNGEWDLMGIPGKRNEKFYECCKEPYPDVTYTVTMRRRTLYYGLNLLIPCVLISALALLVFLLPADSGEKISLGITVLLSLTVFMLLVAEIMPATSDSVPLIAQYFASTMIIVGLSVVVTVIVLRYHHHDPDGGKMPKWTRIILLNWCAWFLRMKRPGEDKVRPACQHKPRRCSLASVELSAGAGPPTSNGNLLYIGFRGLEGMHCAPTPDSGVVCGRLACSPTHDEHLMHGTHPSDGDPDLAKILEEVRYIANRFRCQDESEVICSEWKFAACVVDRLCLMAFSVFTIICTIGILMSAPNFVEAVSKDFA
Put plainly: Memantine effect on E. coli K1 (E44)-induced cAstr/cBMEC shedding in neonatal mice. It counts as in vivo. Particulars: neonatal (10 day-old) mice intraperitoneally injected with E44 and treated with MEM, P<0.001. From the text:
(§1) Then the suspensions were collected and centrifuged.
As α7 nAChR plays an important role in CNS Inflammation induced by microbial and non-microbial factors, we have proposed that turnover and shedding of astrocytes and BMECs could be regulated by α7 nAChR. To test this hypothesis, the correlation of α7 nAChR with cAstr/cBMEC shedding and CNS inflammation induced by meningitic E. coli K1 (E44) was examined an α7 nAChR antagonist memantine (MEM) described in the experimental methods herein. In this study, neonatal (10 day-old) mice were intraperitoneally injected with E44 and treated with MEM.

A further data set concerns cAstr and cBMECs. Briefly: cAstr and cBMEC density in peripheral blood of mice treated with gp120 and METH. It counts as in vivo, mouse. The conditions noted are these: vs controls without treatment (CON).
Text: as §1

Consider `CN1CCCC1c1cccnc1.O=C(O)C(O)C(O)C(=O)O` (stereo not shown) [nicotine, Nicotine tartrate], for which, in the data set with BBB (mice, ELISA), the “serum levels of S100B” value is listed as “significantly increase” and the “serum levels of ubiquitin C-terminal hydrolase 1” value was “significantly increase”. For the same molecule, in the data set on BBB, the “Evans blue and albumin extravasation into the brain” value was “enhanced”; the “blood levels of CD133+/CD146+ endothelial PCs (EPCs)” value is listed as “increased blood levels”; the “blood levels of circulating Astrocytes (cAstr)” value is “increased blood levels”; the “blood levels of circulating BMECs (cBMECs), CD146+/S100B+” value was “increased blood levels”.
As for `CC12CC3CC(C)(C1)CC(N)(C3)C2` [MEM, memantine], on α7 nAChR, the “shedding of cAstr (blood level)” value is listed as “significantly block” and the “shedding of cBMECs (blood level)” value was “significantly block”. Further, on α7 nAChR (listed as memantine), the “shedding of cAstr (blood level)” value is given as “reduce” and the “shedding of cBMECs (blood level)” value is on record as “reduce”.
Take `CN[C@@H](C)Cc1ccccc1` [METH, methamphetamine]: the “Astr (cAstr) shedding” value in the data set with cAstr and cBMECs (FIG. 6A) is reported as “significantly induce”. Moreover, the cBMEC shedding entry in the data set on cAstr and cBMECs (FIG. 6B) is “significantly induce”. Further, in the data set on BBB, the “Evans blue and albumin extravasation into the brain” value was “enhanced”; the “blood levels of CD133+/CD146+ endothelial PCs (EPCs)” value was “increased blood levels”; the “blood levels of circulating Astrocytes (cAstr)” value is “increased blood levels”; the “blood levels of circulating BMECs (cBMECs), CD146+/S100B+” value is “increased blood levels”.
